From patent publication US20260217767A1, “NOVEL A4B7 THIOETHER PEPTIDE DIMER ANTAGONISTS” (Protagonist Therapeutics, Inc., priority 2014, published 2026)
Where a SMILES comes first, the peptide text is derived from it.

Experiments:
[1] = tested on: CD4+/CD45RO+ memory T cells; assay: PBMC Memory T Cell Adhesion Assay; format: cell-based, human; settings: thioether monomer peptides, Table 6
Experimental: PBMC Memory T Cell Adhesion Assay
Fresh CD4+/CD45RO+ memory T cells were isolated from human peripheral blood mononuclear cell (PBMC) donors by Aragen Bioscience Inc. (Morgan Hill, CA). The assay plate was prepared using IgG Fc capture antibody (donkey anti human) immobilized at 500 ng/well in 50 mM sodium bicarbonate buffer, pH 9.5, ON, 4 C onto a Greiner Fluotrac plate (100 ul per well). The plate was rinsed two time with Blocking Buffer (25 mM Tris HCl, pH7.5, 150 mM NaCl, 1.5% BSA, 0.05% Tween), and blocked with Blocking Buffer for 2 hours at 37 C or 5 hours at RT using 200 ul per well. The Blocking Buffer was removed and either MAdCAM-1 or VCAM-1 at 400 ng/well in Blocking Buffer was added and the plate incubated overnight at 4 C (100 ul per well). The plate was washed two times with Blocking Buffer, and rinsed once with 200 ul Binding Media (DMEM phenol red free, 10 mM HEPES, 1×Na pyruvate, 1× Glutamine, and supplemented with 1 mM MnC12 prior to use). To prepare cells, approximately 25 million CD4+/CD45RO+ memory T cells were counted by trypan blue exclusion using a haemocytometer to determine viability and cell count. The cells were transferred to a 50 ml conical tube, and centrifuged at 1200 rpm for 10 minute. The media was aspirated and the cell pellet resuspended in 15 ml Binding Media. The cells were centrifuged again and resuspended in the appropriate amount of Binding Media to be used for assays (50 ul of cells per well at 2× the final density). To each well, and equal volume (50 ul) of test compound was added and the plate was incubated for 1.5 hours at 37 C, 5% CO2. Each well was rinsed 3× with 150 ul per well of Binding Media. […] The plate was incubated at 37 C, 5% CO2, for 45 minutes. The plate was protected from light by using black adhesive seals. Fluorescence intensity was measured using a Molecular Devices Gemini EM Fluorescent Plate Reader (Ex 485/Em530, Bottom Read, Reading Sensitivity=20). IC50 curves are generated using Graph Pad Prism and the curves analyzed using analyzed using a non-linear regression (four parameters) algorithm. The log (concentration) versus RFU (Ex485/Em530) was plotted to determine IC50 values.

α4β1 = target: T1, α4β1 (Homo sapiens, UniProt P05556+P13612); assay: α4β1-VCAM Competition ELISA; format: binding; settings: thioether peptide dimers, Table 7; read-out: ELISA A4B1
T1 construct: purchased R&D Systems 5668-A4
T1 sequence (P13612 34-977 limits assumed): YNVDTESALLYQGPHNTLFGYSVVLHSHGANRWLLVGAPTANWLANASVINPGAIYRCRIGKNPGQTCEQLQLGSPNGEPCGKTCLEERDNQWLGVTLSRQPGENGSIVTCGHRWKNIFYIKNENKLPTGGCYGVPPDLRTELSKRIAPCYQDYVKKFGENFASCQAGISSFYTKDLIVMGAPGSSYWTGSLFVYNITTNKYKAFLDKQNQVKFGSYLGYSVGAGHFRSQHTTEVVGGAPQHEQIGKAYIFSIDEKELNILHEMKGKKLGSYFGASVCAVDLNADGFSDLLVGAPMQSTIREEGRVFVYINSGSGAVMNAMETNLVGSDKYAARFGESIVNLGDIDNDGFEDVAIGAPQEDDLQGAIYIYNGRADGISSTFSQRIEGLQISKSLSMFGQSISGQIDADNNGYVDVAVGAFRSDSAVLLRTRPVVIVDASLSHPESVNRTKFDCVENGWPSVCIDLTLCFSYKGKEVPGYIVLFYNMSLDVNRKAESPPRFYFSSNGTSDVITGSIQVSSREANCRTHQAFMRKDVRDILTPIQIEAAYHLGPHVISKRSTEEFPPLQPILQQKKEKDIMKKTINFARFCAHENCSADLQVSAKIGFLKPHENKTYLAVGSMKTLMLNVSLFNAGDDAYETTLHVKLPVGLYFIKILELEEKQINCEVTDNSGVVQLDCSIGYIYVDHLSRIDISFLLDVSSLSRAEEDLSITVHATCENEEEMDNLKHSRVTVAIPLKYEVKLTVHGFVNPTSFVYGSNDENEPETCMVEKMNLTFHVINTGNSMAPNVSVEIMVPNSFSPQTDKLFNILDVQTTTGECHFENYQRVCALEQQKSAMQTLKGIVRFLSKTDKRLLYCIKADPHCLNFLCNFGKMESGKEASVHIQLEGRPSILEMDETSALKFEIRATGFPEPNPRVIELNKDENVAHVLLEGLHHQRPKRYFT
T1 sequence (P05556 21-728 limits assumed): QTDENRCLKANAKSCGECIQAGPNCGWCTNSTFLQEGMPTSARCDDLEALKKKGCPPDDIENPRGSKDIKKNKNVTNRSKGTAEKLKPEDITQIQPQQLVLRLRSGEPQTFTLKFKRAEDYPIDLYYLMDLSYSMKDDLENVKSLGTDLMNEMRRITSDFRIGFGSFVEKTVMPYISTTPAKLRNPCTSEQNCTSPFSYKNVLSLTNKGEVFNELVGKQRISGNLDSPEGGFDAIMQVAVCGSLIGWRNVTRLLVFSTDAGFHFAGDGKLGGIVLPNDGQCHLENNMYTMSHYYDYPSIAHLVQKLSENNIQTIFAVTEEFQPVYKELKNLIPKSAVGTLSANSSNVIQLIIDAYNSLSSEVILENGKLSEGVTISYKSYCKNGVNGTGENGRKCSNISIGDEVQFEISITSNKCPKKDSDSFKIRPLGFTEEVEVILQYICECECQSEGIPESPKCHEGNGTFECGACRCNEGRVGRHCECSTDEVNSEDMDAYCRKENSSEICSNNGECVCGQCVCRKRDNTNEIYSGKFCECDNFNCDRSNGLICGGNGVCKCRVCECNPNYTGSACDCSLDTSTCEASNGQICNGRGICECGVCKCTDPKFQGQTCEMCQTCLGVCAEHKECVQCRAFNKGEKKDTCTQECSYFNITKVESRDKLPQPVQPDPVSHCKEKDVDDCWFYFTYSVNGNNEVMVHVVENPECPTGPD
Experimental: α4β1-VCAM Competition ELISA
A Nunc MaxiSorp plate was coated with rh VCAM-1/CD106 Fc chimera (R&D #862-VC) at 400 ng/well in 50 ul per well in 1×PBS and incubated overnight at 4° C. The solution was removed by shaking and then blocked with 250 ul of 1% BSA in 1×PBS per well. The wells were then incubated at room temperature for 1 hr with shaking. Each well was then washed once with wash buffer (50 mM Tris-HCl pH7.6, 100 mM NaCL, 1 mM MnCl2 or MgCl2, 0.05% Tween-20). 25 ul of serial dilutions of peptides starting at 200 μM in assay buffer (Assay buffer: 50 mM Tris-HCl pH7.6, 100 mM NaCl, 1 mM MnCl2 or MgCl2, 0.05% Tween-20) was added to each well. Additionally, 25 μl of α4β1 (R&D Systems #5668-A4) was added to each well at a fixed concentration of 120 nM. The final peptide and α4β1 concentrations were 100 μM and 60 nM, respectively. The plates were then incubated at 37° C. for 2 hr. The solution was then removed by shaking and each well was washed three times with wash buffer. 50 ul of 9F10 antibody at 4 ug/ml (purified mouse anti-human CD49d, BD Bioscience Cat #555502) was then added to each well, and the plate was incubated at room temperature for Ihr with shaking. The solution was again removed by shaking, and each well was washed three times with wash buffer. 50 μl of peroxidase-conjugated AffiniPure Goat anti-mouse IgG (Jackson immune research cat #115-035-003) diluted in 1:5000 in assay buffer was added to each well. The plate was incubated at room temperature for 30 min with shaking. Each well was then washed 3 times with wash buffer. 100 ul of TMB was then added to each well and closely observe during developing time. The reaction was stepped with 2N H2SO4 and absorbance was read at 450 nm.

Jurkat E6.1 cells = Jurkat E6.1 cells (Homo sapiens, UniProt P05556+P13612); assay: α4β1-VCAM Cell Adhesion Assay; format: cell-based; settings: thioether peptide dimers, Table 7; read-out: Cell Adhesion A4B1
Sequence of Jurkat E6.1 cells (P13612 34-1032): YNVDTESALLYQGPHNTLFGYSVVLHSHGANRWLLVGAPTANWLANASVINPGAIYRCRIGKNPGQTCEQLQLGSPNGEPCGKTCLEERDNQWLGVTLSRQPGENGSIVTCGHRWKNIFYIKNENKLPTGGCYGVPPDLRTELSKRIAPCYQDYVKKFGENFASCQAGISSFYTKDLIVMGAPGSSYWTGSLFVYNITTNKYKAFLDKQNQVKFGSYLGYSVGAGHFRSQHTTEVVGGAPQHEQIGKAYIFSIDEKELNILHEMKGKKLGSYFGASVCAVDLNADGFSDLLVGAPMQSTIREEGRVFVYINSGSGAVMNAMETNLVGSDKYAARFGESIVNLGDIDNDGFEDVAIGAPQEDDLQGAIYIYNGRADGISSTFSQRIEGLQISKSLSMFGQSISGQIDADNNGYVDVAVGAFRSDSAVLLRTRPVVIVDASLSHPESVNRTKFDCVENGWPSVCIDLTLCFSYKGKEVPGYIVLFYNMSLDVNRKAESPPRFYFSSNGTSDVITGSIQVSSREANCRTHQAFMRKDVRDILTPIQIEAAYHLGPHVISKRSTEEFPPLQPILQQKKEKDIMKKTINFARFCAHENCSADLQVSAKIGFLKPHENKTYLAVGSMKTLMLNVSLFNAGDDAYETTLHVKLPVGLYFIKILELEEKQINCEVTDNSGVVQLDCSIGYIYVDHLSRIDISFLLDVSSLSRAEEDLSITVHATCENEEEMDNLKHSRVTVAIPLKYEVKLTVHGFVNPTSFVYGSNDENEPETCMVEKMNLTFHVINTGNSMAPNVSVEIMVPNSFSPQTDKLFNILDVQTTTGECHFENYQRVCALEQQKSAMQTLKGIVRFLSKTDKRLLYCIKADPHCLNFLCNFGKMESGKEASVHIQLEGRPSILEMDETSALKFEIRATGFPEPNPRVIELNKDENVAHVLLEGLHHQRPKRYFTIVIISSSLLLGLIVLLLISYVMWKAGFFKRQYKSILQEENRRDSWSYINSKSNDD
Sequence of Jurkat E6.1 cells (P05556 21-798): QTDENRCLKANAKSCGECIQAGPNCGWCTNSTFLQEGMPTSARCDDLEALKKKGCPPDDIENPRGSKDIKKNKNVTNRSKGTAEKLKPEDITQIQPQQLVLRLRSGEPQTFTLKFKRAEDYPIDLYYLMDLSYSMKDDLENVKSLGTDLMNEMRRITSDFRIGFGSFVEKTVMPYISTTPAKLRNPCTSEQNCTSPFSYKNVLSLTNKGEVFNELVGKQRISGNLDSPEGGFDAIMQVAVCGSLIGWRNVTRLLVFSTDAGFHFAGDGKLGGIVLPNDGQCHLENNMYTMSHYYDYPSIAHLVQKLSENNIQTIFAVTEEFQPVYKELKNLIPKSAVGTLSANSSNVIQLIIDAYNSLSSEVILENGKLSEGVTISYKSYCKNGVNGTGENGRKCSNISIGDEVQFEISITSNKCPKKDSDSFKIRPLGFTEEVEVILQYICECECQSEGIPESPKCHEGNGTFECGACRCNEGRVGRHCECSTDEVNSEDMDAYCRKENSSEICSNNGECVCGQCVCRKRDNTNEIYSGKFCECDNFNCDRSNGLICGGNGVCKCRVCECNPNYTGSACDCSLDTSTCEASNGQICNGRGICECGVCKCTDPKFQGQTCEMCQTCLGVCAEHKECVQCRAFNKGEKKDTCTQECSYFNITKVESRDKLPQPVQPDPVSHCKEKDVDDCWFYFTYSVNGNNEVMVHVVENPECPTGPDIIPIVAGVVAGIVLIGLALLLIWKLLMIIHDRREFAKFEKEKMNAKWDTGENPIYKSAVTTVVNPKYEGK
Experimental: α4β1-VCAM Cell Adhesion Assay
Jurkat E6.1 cells (Sigma #88042803) were cultured in RPMI 1640 HEPES medium (Invitrogen #22400-089) supplemented with 10% serum (Fetal Bovine Serum, Invitrogen #16140-071), 1 mM sodium pyruvate (Invitrogen #11360-070), 2 mM L-glutamine (Invitrogen #25030-081) and Penicillin-Streptomycin (Invitrogen #15140-122) at 100 units of penicillin and 100 μg of streptomycin per ml. The cells were washed two times in DMEM medium (ATCC #30-2002) supplemented with 0.1% BSA, 10 mM HEPES pH 7 and 1 mM MnCl2. The cells were re-suspended in supplemented DMEM medium at a density of 4×10^6 cells/ml.
A Nunc MaxiSorp plate was coated with rh VCAM-1/CD106 Fc chimera (R&D #862-VC) at 400 ng per well in 50 μl per well in 1×PBS and incubated at 4° C. overnight. The solution was then removed by shaking, blocked with 250 μl per well PBS containing 1% BSA, and incubated at 37° C. for 1 hr. The solution was removed by shaking. Peptides were diluted by serial dilution in a final volume of 50 μl per well (2× concentration). To each well, 50 μl of cells (200,000 cells) were added and the plate was incubated at 37° C., 5% CO2 for 30-45 min to allow cell adhesion. The wells were washed manually three times (100 μl per wash) with supplemented DMEM. After the final wash, 100 μl/well of supplemented DMEM and 10 ul/well of MTT reagent (ATTC cat #30-1010K) were added. The plate was incubated at 37° C., 5% CO2 for 2-3 hrs until a purple precipitate is visible. 100 ul of Detergent Reagent (ATTC cat #30-1010K) is added to each well. The plate was covered from the light, wrapped in Parafilm to prevent evaporation, and left overnight at room temperature in the dark. The plate was shaken for 5 min and the absorbance at 570 nm is measured. To calculate the dose response, the absorbance value of control wells not containing cells was subtracted from each test well.

[2] = Simulated Intestinal Fluid (SIF) Stability Assay; format: in vitro ADME; settings: pig, simulated intestinal fluid (SIF) with 1% porcine pancreatin, pH 6.5, porcine pancreatin, 37° C.; dimers, Table 7
Method in brief: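 Peptide at 22 μM final was incubated at 37° C in blank FaSSIF pH 6.5 with 1% porcine pancreatin. Timed samples were quenched in acetonitrile/methanol/formic acid with internal standard and analysed by LC-MS/MS. Half-lives came from first-order exponential fits of percent remaining.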

[3] = Simulated Gastric Fluid (SGF) Stability Assay; format: in vitro ADME; settings: pig, simulated gastric fluid (SGF) with porcine pepsin, pH 2, 37° C., dimers, Table 7
Experimental: Simulated Gastric Fluid (SGF) Stability Assays
Studies were carried out in simulated gastric fluid (SGF) to evaluate intestinal stability of the peptide molecules of the instant invention. SGF was prepared by adding 20 mg NaCl, 32 mg porcine pepsin (MP Biochemicals, catalog 02102599), and 70 μl HCl to 10 ml water (final pH=2). Aliquots of SGF (0.5 ml each) were pre-warmed at 37° C. To start the reaction, 1 μl of peptide stock solution (10 mM in DMSO) was added to 0.5 ml SGF and thoroughly mixed such that the final peptide concentration was 20 μM. The reactions were incubated at 37° C. with gentle shaking. At each time point (0, 15, 30, 60 min) 50 μl aliquots were removed and added to 200 μl acetonitrile containing 0.1% formic acid to quench the reaction. Samples are stored at 4° C. until the end of the experiment and centrifuged at 10,000 rpm for 5 minutes. Aliquots of the supernatant were removed, diluted 1:1 into distilled water containing internal standard, and analyzed by LCMS/MS. Percent remaining at each timepoint was calculated based on the peak area response ratio of test to compound to internal standard. Time 0 was set to 100%, and all later timepoints were calculated relative to time 0. Half-lives were calculated by fitting to a first-order exponential decay equation using GraphPad.

SMILES	IC50 [1] [nM]	IC50 (α4β1) [nM]	IC50 (Jurkat E6.1 cells) [nM]	half-life at 22 μM [2] [h]	half-life at 20 μM [3] [h]
CC(C)C[C@@H]1NC(=O)[C@H]([C@@H](C)O)NC(=O)[C@H](CC(=O)O)NC(=O)[C@H](CO)NC(=O)[C@H](CCCNC(=N)N)N(C)C(=O)c2ccccc2CSC(C)(C)[C@@H](C(=O)N[C@@H](Cc2c[nH]c3ccccc23)C(=O)N[C@H](CCC(=O)O)C(N)=O)NC1=O [compound 98] (HELM PEPTIDE1{[meR].S.D.T.L.[Pen].W.[dE].[am]}|CHEM1{[O=C(c1ccccc1C[*:2])[*:1]]}$PEPTIDE1,CHEM1,1:R1-1:R1|PEPTIDE1,CHEM1,6:R3-1:R2$$$V2.0)	100 to 1000	–	–	–	–
CC(C)C[C@@H]1NC(=O)[C@H]([C@@H](C)O)NC(=O)[C@H](CC(=O)O)NC(=O)[C@H](CO)NC(=O)[C@H](CCCNC(=N)N)N(C)C(=O)c2ccccc2CSC(C)(C)[C@@H](C(=O)N[C@@H](Cc2ccccc2)C(=O)N[C@@H](CCC(=O)O)CC(=O)N[C@H](CCCCN)C(N)=O)NC1=O [compound 164] (HELM PEPTIDE1{[meR].S.D.T.L.[Pen].F.[O=C(O)CC[C@@H](CC(=O)[*:2])N[*:1]].[dK].[am]}|CHEM1{[O=C(c1ccccc1C[*:2])[*:1]]}$PEPTIDE1,CHEM1,1:R1-1:R1|PEPTIDE1,CHEM1,6:R3-1:R2$$$V2.0)	–	25 to 100	> 100000	> 3	> 1
CC(C)C[C@@H]1NC(=O)[C@H]([C@@H](C)O)NC(=O)[C@H](CC(=O)O)NC(=O)[C@H](CO)NC(=O)[C@H](CCCNC(=N)N)N(C)C(=O)c2ccccc2CSC(C)(C)[C@@H](C(=O)N[C@@H](Cc2c[nH]c3ccccc23)C(=O)N[C@@H](CCC(=O)O)C(=O)N(C)[C@H](CCCCN)C(N)=O)NC1=O [compound 152] (HELM PEPTIDE1{[meR].S.D.T.L.[Pen].W.E.[CN([C@H](CCCCN)C(=O)[*:2])[*:1]].[am]}|CHEM1{[O=C(c1ccccc1C[*:2])[*:1]]}$PEPTIDE1,CHEM1,1:R1-1:R1|PEPTIDE1,CHEM1,6:R3-1:R2$$$V2.0)	–	25 to 100	> 100000	> 3	> 1
CC(C)C[C@@H]1NC(=O)[C@H]([C@@H](C)O)NC(=O)[C@H](CC(=O)O)NC(=O)[C@H](CO)NC(=O)[C@H](CCCNC(=N)N)N(C)C(=O)c2ccccc2CSC(C)(C)[C@@H](C(=O)N[C@@H](Cc2ccc(O)cc2)C(=O)N[C@H](CCC(=O)O)C(=O)N[C@H](CCCCN)C(N)=O)NC1=O [compound 169] (HELM PEPTIDE1{[meR].S.D.T.L.[Pen].Y.[dE].[dK].[am]}|CHEM1{[O=C(c1ccccc1C[*:2])[*:1]]}$PEPTIDE1,CHEM1,1:R1-1:R1|PEPTIDE1,CHEM1,6:R3-1:R2$$$V2.0)	–	100 to 1000	> 100000	> 3	> 3
